In US20130064815A1, “INDUCING APOPTOSIS IN QUIESCENT CELLS” (THE TRUSTEES OF PRINCETON UNIVERSITY, priority 2011, published 2013):

What was measured:
tumor cells = conditions: intraperitoneal injection of tumor cells; cited from earlier work
colon cancer = conditions: in vivo; cited from earlier work
P and CI14 fibroblasts = test: PPP inhibition and PI live/dead analysis by flow cytometry; type: cell-based, human; conditions: CI14 vs proliferating fibroblasts; 100 μM and 250 μM, four days; p<0.01
Procedure: The function of the PPP in quiescent and proliferating fibroblasts was tested. Proliferating or CI14 fibroblasts were incubated with DHEA, a small molecule inhibitor of the PPP for four days. The fraction of cells that were dead was monitored with propidium iodide (PI) labeling followed by flow cytometry.
PPP inhibition and PI live/dead analysis: P and CI14 fibroblasts were treated with dehydroepiandrosterone dissolved in ethanol or dimethylsufoxide (0.1% vol/vol) for four days. On the fourth day of treatment with the inhibitor, cells were trypsinized and collected into conditioned media. Cells were then centrifuged for 5 min at 1000 rpm. The supernatant was aspirated and cells were taken up in PBS with 1 μg/ml PI (VWR, West Chester, Pa.). Cells were kept on ice and immediately analyzed by flow cytometry using a BD LSRII multi-laser analyzer (BD Biosciences, San Jose, Calif.). PI was excited at 488 nm and emitted fluorescence was collected through a 610/20 bandpass filter. At least 40,000 cells were collected and analyzed with FACSDiVa software (BD Biosciences, San Jose, Calif.). PI negative cells were counted as live cells and PI positive cells were counted as dead cells.

thyroid tumors = conditions: F344 rats treated with DHPN, then DHEA; cited from earlier work
G6PD = target: T1, G6PD (Homo sapiens, UniProt P11413); test: G6PD activity in fibroblasts treated with DHEA; type: cell-based
T1 construct: endogenous in cells; host or cells: primary human foreskin fibroblasts (proliferating or serum-starved)
T1 sequence (P11413 whole entry): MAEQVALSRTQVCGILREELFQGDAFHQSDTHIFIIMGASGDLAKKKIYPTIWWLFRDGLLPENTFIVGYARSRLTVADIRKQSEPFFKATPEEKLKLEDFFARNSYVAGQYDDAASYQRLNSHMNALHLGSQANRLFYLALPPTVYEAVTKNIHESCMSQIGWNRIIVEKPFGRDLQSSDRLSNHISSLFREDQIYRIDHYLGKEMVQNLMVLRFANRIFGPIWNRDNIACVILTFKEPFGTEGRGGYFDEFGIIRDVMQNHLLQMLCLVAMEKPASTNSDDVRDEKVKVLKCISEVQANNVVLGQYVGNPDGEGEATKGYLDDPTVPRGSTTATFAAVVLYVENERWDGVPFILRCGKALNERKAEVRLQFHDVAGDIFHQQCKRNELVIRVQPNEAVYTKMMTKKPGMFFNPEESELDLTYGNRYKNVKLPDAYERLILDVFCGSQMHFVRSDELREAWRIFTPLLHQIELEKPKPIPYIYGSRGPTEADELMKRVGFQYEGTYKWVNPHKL
Excerpt: Referring to FIGS. 18A and 18B, NADPH production is induced in quiescent fibroblasts. G6PD, PGD and IDH1 are expressed at low levels in proliferating fibroblasts, at higher levels in 7 dCI, 14 dCI and 14 dCI7 dSS fibroblasts, and at even higher levels in 4 dSS and 7 dSS fibroblasts (FIGS. 18A and 18B). Malic enzyme, another protein that generates NADPH but was not predicted to be differentially active in proliferating versus quiescent fibroblasts, was expressed at similar levels in cells in all conditions. The activity of the NADPH-producing enzymes in cytosolic or mitochondrial lysates collected from cells in different proliferative conditions is shown in FIG. 18A. Immunoblotting confirmed successful separation of mitochondrial and cytosolic proteins. Lysates were incubated with the appropriate substrate and the rate of enzymatic activity was determined based on the appearance or disappearance of NADH or NADPH. G6PD had the highest specific activity among the enzymes monitored, consistent with previous reports that it is the most important contributor to NAPDH levels. […] Thus NADPH-generating enzymes in the pentose-phosphate pathway are activated in serum-starved fibroblasts. […]

[1] = test system: neoplasms, lymphoblastic lymphoma; conditions: p53-deficient mouse; cited from earlier work
[2] = test system: low-grade cervical lesions; conditions: 12 women with low-grade dysplasia; intravaginal; cited from earlier work
[3] = test system: extracellular glutathione; test: glutathione in conditioned medium by mass spectrometry; type: cell-based, human; conditions: 7 dSS fibroblasts; DHEA vs DMSO control
Excerpt: It was expected that the reduction in NADPH levels that resulted from DHEA treatment would result in lower activity of glutathione reductase and thus a decrease in the levels of reduced glutathione. […] The depletion of glutathione in response to DHEA could be an important part of the apoptotic pathway. Alternatively, because apoptosing cells can rapidly and selectively release glutathione to the extracellular environment (van den Dobbelsteen et al., 1996, “Rapid and specific efflux of reduced glutathione during apoptosis induced by anti-Fas/APO-1 antibody,” J Biol Chem 271, 15240-15427; Franco et al., “Glutathione depletion is necessary for apoptosis in lymphoid cells independent of reactive oxygen species,” J Biol Chem 282, 30452-30465, 2007, which are incorporated herein by reference as if fully set forth), the depletion of glutathione could represent a response to a distinct apoptotic trigger. Mass spectrometry was used to measure glutathione levels in conditioned medium from 7 dSS fibroblasts treated with DMSO as a control or with DHEA. There was no increase in extracellular glutathione in conditioned medium from DHEA-treated fibroblasts compared with controls; in fact, levels were lower, consistent with a DHEA-induced reduction in intracellular levels of reduced glutathione. […]

C[C@]12CC[C@H](O)CC1=CC[C@@H]1[C@@H]2CC[C@]2(C)C(=O)CC[C@@H]12 [DHEA, dehydroepiandrosterone]
tumor growth (tumor cells): inhibit tumor growth
effect on colon cancer (colon cancer): chemopreventative effect
cell death (PI labeling) (P and CI14 fibroblasts): statistically significant increase in cell death
basophilic hepatocellular foci (thyroid tumors): associated with development of basophilic hepatocellular foci
development of thyroid tumors (thyroid tumors): decreased development of thyroid tumors
G6PD activity (G6PD; proliferating cells treated with DHEA): declined
G6PD activity (G6PD; serum-starved fibroblasts treated with DHEA): significantly declined
death due to neoplasms [1]: delay death due to neoplasms
regression of low-grade cervical lesions [2]: may promote regression of low-grade cervical lesions
safety [2]: safe to administer
extracellular glutathione in conditioned medium [3]: no increase
